Legend:
M6P/IGF-II receptor mRNA = M6P/IGF-II receptor mRNA in human neonatal fibroblasts by RT-PCR; type: cell-based; conditions: 100 and 200 μM
Experimental: (§1) Human neonatal fibroblasts were seeded in 100 mm dishes at 1×10^6 cells/dish. […] In addition, cells were treated with two concentrations of Mannose 1-Phosphate (M1P) (100 and 200 μM) for 24 and 48 h. […] Each treatment was run in duplicates and repetitive analyses were performed.
(§2) The procedure used to transcribe the total RNA was described in detail previously (28). Briefly, the reaction was carried out in a total volume of 25 μl containing 1× reverse transcriptase buffer (50 mM Tris-HCl, pH 8.3, 75 mM KCl, 3 mM MgCl2), 10 mM DTT (Dithiothreitol), 2.5 mM each of dNTPs (Deoxynucleotides), 100 μg/ml of acetylated BSA, 4 units of rRNasin (ribonuclease inhibitor), 200 units of SuperScript™ RNase H^−Reverse Transcriptase, 0.1 μg of oligo (dT)12-18 and 1 μg of total RNA. Incubation was carried out for 1 h at 42° C. and was terminated by the addition of an equal volume of cold water.
(§3) A portion of the first strand cDNA reaction was used in PCR, which was carried out in 25 μl containing 16 mM Tris-HCl, pH 8.3, 50 mM KCl, 1.5 mM MgCl2, 0.01% gelatin, 200 μM of each dNTPs, 1 μM each sense and antisense oligonucleotides and 2.5 units of AmpliTaq DNA polymerase. Amplification was carried out for 35 cycles. Each cycle consisted of: denaturation 1 min at 95° C.; annealing at 55° C. (optimal for the pair of oligonucleotides used) for 2 min; and elongation at 72° C., 3 min. For the final cycle elongation was 7 min. Reaction products were separated by 2% agarose gel electrophoresis and were visualized by ethidium bromide staining. Sizes were determined using Q X 174 DNA/Hae III markers. Restriction digests were performed in order to confirm PCR product specificity. Densitometry was used for quantitative analysis of the ethidium bromide stained gels.

TGF-β1 activation [1] = experiment: BAEC treated with retinoic acid, TGF-β1 in conditioned media by ELISA; type: cell-based, bovine
Experimental: The procedures for preparation of conditioned media were described previously (22). Briefly, for the retinoid experiment, BAEC cells were grown to confluency in 35 mm dishes. The cultures were rinsed with PBS (Phosphate Buffered Saline), and incubated in 1 ml of serum-free DMEM containing 0.1% of BSA and retinoic acid (10 μM) or vehicle (0.5% ethanol). The incubation was carried out for 24 h. The medium was aspirated, the cells were washed with PBS and then incubated in 1 ml of DMEM/0.1% BSA for an additional 12 h to produce conditioned medium. Conditioned media were centrifuged and used in the ELISA assay for TGF-β1 evaluation.
Each measurement was performed in duplicates. […]

TGF-β1 mRNA = TGF-β1 mRNA in human neonatal fibroblasts by RT-PCR; type: cell-based; conditions: 100 and 200 μM
Experimental: as §1, §2, §3

TGF-β1 activation [2] = experiment: Macrophage activation assay (IC-21 macrophages, LPS, fetal fibroblast conditioned media, ELISA); type: cell-based, mouse
Experimental: Cultured macrophages were lifted from the dish with 3 ml of PBS. The PBS was balanced with 15 ml of RPMI-1640 containing 10% FBS. The cells were counted and then seeded in 100 mm plates at 1×10^6 cells/dish. When the cultured macrophages reached approximately 70% confluency (2-3 days) they were washed with PBS and RPMI-1640 medium containing 5% FBS and 10 ng/ml LPS was applied (FIG. 1). After 24 h of activation with LPS the cells were washed gently with PBS. At this point conditioned medium from confluent fetal dermal fibroblasts was collected and 5 ml was distributed into each dish containing macrophages. The cells were incubated for an additional 24 h, the media were collected, spun down at 600×g for 10 min and stored at 4° C. before TGF-β1 evaluation by ELISA. Each condition was done in duplicate. The cells, washed with PBS, were harvested for total RNA extraction.
Fetal dermal fibroblasts were seeded in 100 mm dishes at 1×10^6 cell/dish. The cells were grown to confluency (2-3 days). The cultures were washed with PBS and fresh medium, either DMEM supplemented with 10% FBS or AIM-V medium (a serum free medium) for serum-free conditions, was applied for 24 h (FIG. 1). The medium was collected and combined in order to obtain a homogenous pool of latent TGF-β1. The collection of the medium was done just prior to application in the macrophage assay.
(§4) Each measurement was performed in duplicates.

[3] = system: tissue Transglutaminase II mRNA; experiment: mRNA for TGase II in macrophages by RT-PCR densitometry; type: cell-based, mouse; conditions: 1 μM hydrocortisone, densitometry of RT-PCR products, FIG. 3
Experimental: The cells were washed with PBS, followed by addition of the extraction buffer provided with the kit (RNeasy RNA extraction kit). The lysed cells were scraped from the dish and collected in microtubes. Samples were either frozen at −70° C. before analysis or directly assessed following manufacturer protocol. Absorbance at 260 nm and 280 nm was measured and the integrity of RNA was evaluated by denaturing formaldehyde agarose gels stained with ethidium bromide.
The procedure used to transcribe the total RNA was described in detail previously (28). […]
A portion of the first strand cDNA reaction was used in PCR, which was carried out in 25 μl containing 16 mM Tris-HCl, pH 8.3, 50 mM KCl, 1.5 mM MgCl2, 0.01% gelatin, 200 μM of each dNTPs, 1 μM each sense and antisense oligonucleotides and 2.5 units of AmpliTaq DNA polymerase. […] Sizes were determined using Q X 174 DNA/Hae III markers. […] Densitometry was used for quantitative analysis of the ethidium bromide stained gels.
In an attempt to identify the mechanism of this inhibition, the level of mRNA was evaluated for TGase II in macrophages treated with 1 μM hydrocortisone.

TGF-β1 activation [4] = experiment: TGF-β1 activation by prostate adenocarcinoma cells (ELISA); type: cell-based, human; conditions: Adenocarcinoma cells; M6P 100 μM, cystamine 100 μM, antibody 1:1500 dil
Experimental: as §4
It has been shown that cancer cells, such as human breast cancer, some melanoma cell lines and prostate adenocarcinoma cell lines, constitutively release biologically active TGF-β1 into the culture medium (24, 25, 29). Since the homotypic cell culture system would be of advantage due to its simplicity, an attempt was made to implement cancer cells as a method for TGF-β1 activation.

[5] = BAEC + RA (10 μM) + test agent 100 μM
[6] = BAEC + RA (10 μM), conditioned medium

SMILES: O=P(O)(O)O[C@H]1O[C@H](CO)[C@@H](O)[C@H](O)[C@@H]1O [M1P, alpha-D(+)mannose 1-phosphate]
- effect on M6P/IGF-II receptor mRNA level, in words (M6P/IGF-II receptor mRNA): no effects
- inhibitory effect on TGF-β1 activation, in words (TGF-β1 activation [1]; 100 μM, BAEC treated with RA): no significant inhibitory effects
- % Active (TGF-β1 activation [1]; [5]): 7.6%
- Active TGF-β1 (TGF-β1 activation [1]; [5]): 280 pg/mL
- Total TGF-β1 (TGF-β1 activation [1]; [5]): 3686 pg/mL
- effect on TGF-β1 mRNA level, in words (TGF-β1 mRNA): no effects

SMILES: C[C@]12CCC(=O)C=C1CC[C@@H]1[C@@H]2[C@@H](O)C[C@@]2(C)[C@H]1CC[C@]2(O)C(=O)CO [Hydrocortisone, hydrocortisone]
- active TGF-β1, % Control (STD) (TGF-β1 activation [2]; 1 μM): 64.0 (0.4) %
- active TGF-β1, % Control (STD) (TGF-β1 activation [2]; 1 μM, listed as hydrocortisone): 64.0%
- level of mRNA for TGase II, reduced to [3]: 37.5%

SMILES: CC1=C(/C=C/C(C)=C/C=C/C(C)=C/C(=O)O)C(C)(C)CCC1 [RA, all-trans retinoic acid]
- % Active (TGF-β1 activation [1]; BAEC + RA (10 μM)): 10.3%
- Active TGF-β1 (TGF-β1 activation [1]; [6]): 276 pg/mL
- Total TGF-β1 (TGF-β1 activation [1]; [6]): 2667 pg/mL

SMILES: NCCSSCCN [Cystamine, cystamine]
- active TGF-β1, % Control (STD) (TGF-β1 activation [2]; 50 μM M6P + 100 μM putrescine or cystamine): did not show additive effect
- % ACTIVE TGF-β1 (STD) (TGF-β1 activation [4]): 91.1%

Reference: patent US6750028B1, “Anti-fibrotic agent assay” (Ethicon, Inc, priority 1996, dated 2004)
